Measurements as given in patent publication US9695155B2, “Herbicidal substituted pyrimidinyloxy benzene compounds” (E. I. DU PONT DE NEMOURS AND COMPANY, priority 2013, dated 2017).

Assays:
canarygrass = test: Test D preemergence; format: in vivo, Phalaris minor
How it was run: (§1)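 Solvent/surfactant formulations are sprayed pre (silt loam) or post (1–4 leaf plants, 2–18 cm). Plants stay 7–21 days in controlled conditions before a visual 0–100 score is given.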

speedwell [1] = test: Test D preemergence; format: in vivo, Veronica persica
Description: (§2) Seeds of plant species selected from bluegrass (annual bluegrass, Poa annua), blackgrass (Alopecurus myosuroides), canarygrass (littleseed canarygrass, Phalaris minor), chickweed (common chickweed, Stellaria media), galium (catchweed bedstraw, Galium aparine), bromegrass, downy (downy bromegrass, Bromus tectorum), field poppy (Papaver rhoeas), field violet (Viola arvensis), green foxtail (Setaria viridis), deadnettle (henbit deadnettle, Lamium amplexicaule), Italian ryegrass (Lolium multiflorum), kochia (Kochia scoparia), lambsquarters (Chenopodium album), oilseed rape (Brassica napus), pigweed (Amaranthus retroflexus), chamomile (scentless chamomile, Matricaria inodora), Russian thistle (Salsola kali), speedwell (bird's-eye speedwell, Veronica persica), spring barley (Hordeum vulgare), spring wheat (Triticum aestivum), wild buckwheat (Polygonum convolvulus), wild mustard (Sinapis arvensis), wild oat (Avena fatua), wild radish (Raphanus raphanistrum), windgrass (Apera spica-venti), winter barley (Hordeum vulgare), and winter wheat (Triticum aestivum) were planted into a silt loam soil and treated preemergence with test chemicals formulated in a non-phytotoxic solvent mixture which included a surfactant.
(§3) At the same time, these species were planted in pots containing Redi-Earth® planting medium (Scotts Company, 14111 Scottslawn Road, Marysville, Ohio 43041) comprising spaghnum peat moss, vermiculite, wetting agent and starter nutrients and treated with postemergence applications of the test chemicals formulated in the same manner. Plants ranged in height from 2 to 18 cm (1- to 4-leaf stage). Treated plants and controls were maintained in a controlled growth environment for 7 to 21 days after which time all species were compared to controls and visually evaluated. Plant response ratings, summarized in Table D, are based on a scale of 0 to 100 where 0 is no effect and 100 is complete control. A dash (-) response means no test result.

bromegrass, downy = test: Test D preemergence; format: in vivo, Bromus tectorum
Description: as §2, §3

kochia [2] = test: Test D postemergence; format: in vivo, Kochia scoparia
How it was run: as §1

blackgrass = test: Test D preemergence; format: in vivo, Alopecurus myosuroides
Description: as §2, §3

chickweed = test: Test D preemergence; format: in vivo, Stellaria media
How it was run: as §1

lambsquarters = test: Test D postemergence; format: in vivo, Chenopodium album
Description: as §2, §3

speedwell [3] = test: Test D postemergence; format: in vivo, Veronica persica
How it was run: as §1

oilseed rape = test: Test D preemergence; format: in vivo, Brassica napus
Description: as §2, §3

bermudagrass = test: Test F preemergence; format: in vivo, Cynodon dactylon; details: 21 days, scale 0 to 100
How it was run: (§4)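 Preemergence application to seeded loam–sand soil, with compound delivered in a non-phytotoxic solvent plus surfactant; weed control assessed visually at 21 days (0–100 scale).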

kochia [4] = test: Test F preemergence; format: in vivo, Kochia scoparia; details: 21 days, scale 0 to 100
How it was run: as §4

[5] = 16 g ai/ha, scale 0 (no effect) to 100 (complete control)
[6] = 31 g ai/ha, scale 0 to 100 (0 no effect, 100 complete control)
[7] = 62 g ai/ha, scale 0 to 100 (0 no effect, 100 complete control)
[8] = 125 g ai/ha, scale 0 to 100 (0 no effect, 100 complete control)

FCc1cccc(Oc2ncc(Cl)cn2)c1-n1cc(I)cn1 [Compound 245]
Plant response rating, Canarygrass (canarygrass; [5]): 0
Plant response rating, Canarygrass (canarygrass; 31 g ai/ha, scale 0-100): 0
Plant response rating, Canarygrass (canarygrass; 62 g ai/ha, scale 0-100): 15
Plant response rating, Canarygrass (canarygrass; 125 g ai/ha, scale 0-100): 35
Plant response rating, Speedwell (speedwell [1]; [5]): 5
Plant response rating, Speedwell (speedwell [1]; 31 g ai/ha, scale 0 (no effect) to 100 (complete control)): 100
Plant response rating, Speedwell (speedwell [1]; 125 g ai/ha, scale 0-100): 100
Plant response rating, Bromegrass, Downy (bromegrass, downy; [5]): 0
Plant response rating, Bromegrass, Downy (bromegrass, downy; 31 g ai/ha, scale 0-100): 0
Plant response rating, Bromegrass, Downy (bromegrass, downy; 62 g ai/ha, scale 0-100): 35
Plant response rating, Bromegrass, Downy (bromegrass, downy; 125 g ai/ha, scale 0-100): 40
Plant response rating, Kochia (kochia [2]; 16 g ai/ha, scale 0-100): 25
Plant response rating, Kochia (kochia [2]; [6]): 70
Plant response rating, Kochia (kochia [2]; [7]): 90
Plant response rating, Kochia (kochia [2]; [8]): 90
Plant response rating, Blackgrass (blackgrass; [5]): 0
Plant response rating, Blackgrass (blackgrass; 31 g ai/ha, scale 0-100): 0
Plant response rating, Blackgrass (blackgrass; 62 g ai/ha, scale 0-100): 10
Plant response rating, Blackgrass (blackgrass; 125 g ai/ha, scale 0-100): 65
Plant response rating, Chickweed (chickweed; [5]): 55
Plant response rating, Chickweed (chickweed; 31 g ai/ha, scale 0-100): 85
Plant response rating, Chickweed (chickweed; 62 g ai/ha, scale 0-100): 100
Plant response rating, Chickweed (chickweed; 125 g ai/ha, scale 0-100): 100
Plant response rating, Lambsquarters (lambsquarters; 16 g ai/ha, scale 0-100): 65
Plant response rating, Lambsquarters (lambsquarters; [6]): 80
Plant response rating, Lambsquarters (lambsquarters; [7]): 85
Plant response rating, Lambsquarters (lambsquarters; [8]): 95
Plant response rating, Speedwell (speedwell [3]; 16 g ai/ha, scale 0-100): 100
Plant response rating, Speedwell (speedwell [3]; [6]): 100
Plant response rating, Speedwell (speedwell [3]; [7]): 100
Plant response rating, Speedwell (speedwell [3]; [8]): 100
Plant response rating, Oilseed Rape (oilseed rape; [5]): 0
Plant response rating, Oilseed Rape (oilseed rape; 31 g ai/ha, scale 0-100): 0
Plant response rating, Oilseed Rape (oilseed rape; 62 g ai/ha, scale 0-100): 30
Plant response rating, Oilseed Rape (oilseed rape; 125 g ai/ha, scale 0-100): 100

N#Cc1cccc(Oc2ncc(Cl)cn2)c1-n1cc(OCC(F)(F)F)cn1 [Compound 274, 3-[(5-chloro-2-pyrimidinyl)oxy]-2-[4-(2,2,2-trifluoroethoxy)-1H-pyrazol-1-yl]benzonitrile]
pest or weed control at 16 g/ha (canarygrass; Phalaris minor, pre-emergence, 16 g ai/ha, scale 0 (no effect) to 100 (complete control), read-out: Plant response rating, Canarygrass): 20%
pest or weed control at 31 g/ha (canarygrass; Phalaris minor, pre-emergence, 31 g ai/ha, scale 0-100, read-out: Plant response rating, Canarygrass): 20%
pest or weed control at 62 g/ha (canarygrass; Phalaris minor, pre-emergence, 62 g ai/ha, scale 0-100, read-out: Plant response rating, Canarygrass): 60%
pest or weed control at 125 g/ha (canarygrass; Phalaris minor, pre-emergence, 125 g ai/ha, scale 0-100, read-out: Plant response rating, Canarygrass): 85%
Plant response rating, Bermudagrass (bermudagrass; 16 g ai/ha): 85
Plant response rating, Bermudagrass (bermudagrass; 31 g ai/ha): 100
Plant response rating, Bermudagrass (bermudagrass; 62 g ai/ha): 100
Plant response rating, Bermudagrass (bermudagrass; 125 g ai/ha): 100
Plant response rating, Bermudagrass (bermudagrass; 250 g ai/ha): 100
pest or weed control at 16 g/ha (speedwell [1]; Veronica persica, pre-emergence, 16 g ai/ha, scale 0 (no effect) to 100 (complete control), read-out: Plant response rating, Speedwell): 100%
pest or weed control at 31 g/ha (speedwell [1]; Veronica persica, pre-emergence, 31 g ai/ha, scale 0 (no effect) to 100 (complete control), read-out: Plant response rating, Speedwell): 100%
pest or weed control at 125 g/ha (speedwell [1]; Veronica persica, pre-emergence, 125 g ai/ha, scale 0-100, read-out: Plant response rating, Speedwell): 100%
pest or weed control at 16 g/ha (bromegrass, downy; Bromus tectorum, pre-emergence, 16 g ai/ha, scale 0 (no effect) to 100 (complete control), read-out: Plant response rating, Bromegrass, Downy): 0%
pest or weed control at 31 g/ha (bromegrass, downy; Bromus tectorum, pre-emergence, 31 g ai/ha, scale 0-100, read-out: Plant response rating, Bromegrass, Downy): 5%
pest or weed control at 62 g/ha (bromegrass, downy; Bromus tectorum, pre-emergence, 62 g ai/ha, scale 0-100, read-out: Plant response rating, Bromegrass, Downy): 5%
pest or weed control at 125 g/ha (bromegrass, downy; Bromus tectorum, pre-emergence, 125 g ai/ha, scale 0-100, read-out: Plant response rating, Bromegrass, Downy): 35%
pest or weed control at 16 g/ha (kochia [2]; Bassia scoparia, post-emergence, 16 g ai/ha, scale 0-100, read-out: Plant response rating, Kochia): 60%
pest or weed control at 31 g/ha (kochia [2]; Bassia scoparia, post-emergence, 31 g ai/ha, scale 0 to 100 (0 no effect, 100 complete control), read-out: Plant response rating, Kochia): 70%
pest or weed control at 62 g/ha (kochia [2]; Bassia scoparia, post-emergence, 62 g ai/ha, scale 0 to 100 (0 no effect, 100 complete control), read-out: Plant response rating, Kochia): 90%
pest or weed control at 125 g/ha (kochia [2]; Bassia scoparia, post-emergence, 125 g ai/ha, scale 0 to 100 (0 no effect, 100 complete control), read-out: Plant response rating, Kochia): 95%
pest or weed control at 16 g/ha (blackgrass; Alopecurus myosuroides, pre-emergence, 16 g ai/ha, scale 0 (no effect) to 100 (complete control), read-out: Plant response rating, Blackgrass): 10%
pest or weed control at 31 g/ha (blackgrass; Alopecurus myosuroides, pre-emergence, 31 g ai/ha, scale 0-100, read-out: Plant response rating, Blackgrass): 30%
pest or weed control at 62 g/ha (blackgrass; Alopecurus myosuroides, pre-emergence, 62 g ai/ha, scale 0-100, read-out: Plant response rating, Blackgrass): 70%
pest or weed control at 125 g/ha (blackgrass; Alopecurus myosuroides, pre-emergence, 125 g ai/ha, scale 0-100, read-out: Plant response rating, Blackgrass): 95%
pest or weed control at 16 g/ha (chickweed; Stellaria media, pre-emergence, 16 g ai/ha, scale 0 (no effect) to 100 (complete control), read-out: Plant response rating, Chickweed): 60%
pest or weed control at 31 g/ha (chickweed; Stellaria media, pre-emergence, 31 g ai/ha, scale 0-100, read-out: Plant response rating, Chickweed): 85%
pest or weed control at 62 g/ha (chickweed; Stellaria media, pre-emergence, 62 g ai/ha, scale 0-100, read-out: Plant response rating, Chickweed): 100%
pest or weed control at 125 g/ha (chickweed; Stellaria media, pre-emergence, 125 g ai/ha, scale 0-100, read-out: Plant response rating, Chickweed): 100%
pest or weed control at 16 g/ha (lambsquarters; Chenopodium album, post-emergence, 16 g ai/ha, scale 0-100, read-out: Plant response rating, Lambsquarters): 75%
pest or weed control at 31 g/ha (lambsquarters; Chenopodium album, post-emergence, 31 g ai/ha, scale 0 to 100 (0 no effect, 100 complete control), read-out: Plant response rating, Lambsquarters): 80%
pest or weed control at 62 g/ha (lambsquarters; Chenopodium album, post-emergence, 62 g ai/ha, scale 0 to 100 (0 no effect, 100 complete control), read-out: Plant response rating, Lambsquarters): 95%
pest or weed control at 125 g/ha (lambsquarters; Chenopodium album, post-emergence, 125 g ai/ha, scale 0 to 100 (0 no effect, 100 complete control), read-out: Plant response rating, Lambsquarters): 95%
Plant response rating, Kochia (kochia [4]; 16 g ai/ha): 100
Plant response rating, Kochia (kochia [4]; 31 g ai/ha): 100
Plant response rating, Kochia (kochia [4]; 62 g ai/ha): 100
Plant response rating, Kochia (kochia [4]; 125 g ai/ha): 100
Plant response rating, Kochia (kochia [4]; 250 g ai/ha): 100
pest or weed control at 16 g/ha (speedwell [3]; Veronica persica, post-emergence, 16 g ai/ha, scale 0-100, read-out: Plant response rating, Speedwell): 75%
pest or weed control at 31 g/ha (speedwell [3]; Veronica persica, post-emergence, 31 g ai/ha, scale 0 to 100 (0 no effect, 100 complete control), read-out: Plant response rating, Speedwell): 100%
pest or weed control at 62 g/ha (speedwell [3]; Veronica persica, post-emergence, 62 g ai/ha, scale 0 to 100 (0 no effect, 100 complete control), read-out: Plant response rating, Speedwell): 85%
pest or weed control at 125 g/ha (speedwell [3]; Veronica persica, post-emergence, 125 g ai/ha, scale 0 to 100 (0 no effect, 100 complete control), read-out: Plant response rating, Speedwell): 100%
plant injury at 16 g/ha (oilseed rape; Brassica napus, pre-emergence, 16 g ai/ha, scale 0 (no effect) to 100 (complete control), read-out: Plant response rating, Oilseed Rape): 35%
plant injury at 31 g/ha (oilseed rape; Brassica napus, pre-emergence, 31 g ai/ha, scale 0-100, read-out: Plant response rating, Oilseed Rape): 30%
plant injury at 62 g/ha (oilseed rape; Brassica napus, pre-emergence, 62 g ai/ha, scale 0-100, read-out: Plant response rating, Oilseed Rape): 65%
plant injury at 125 g/ha (oilseed rape; Brassica napus, pre-emergence, 125 g ai/ha, scale 0-100, read-out: Plant response rating, Oilseed Rape): 75%
